From paper PMC5564600 (Oncotarget, 2017) come the findings set out here.

Read-outs that look alike come from different tables or passages of the source.

Holding throughout (test): biochemical
What all share (format): binding

Assay [1] has as its target T1, panel of 442 kinases (Homo sapiens, UniProt O75116).
T1 construct: purchased Ambit Biosciences (scanMAXX KINOMEscan)
The conditions noted are these: kinase ROCK2; for remaining activity at 1 µM: read-out: ROCK2 (% of control at 1 µM).

Assay [2] concerns the target T2, panel of 442 kinases (Homo sapiens, UniProt O75676).
T2 construct: purchased Ambit Biosciences (scanMAXX KINOMEscan)

The target in assay [3] is T3, panel of 442 kinases (Homo sapiens, UniProt P51812).
T3 construct: purchased Ambit Biosciences (scanMAXX KINOMEscan)
The settings on record: kinase RSK2(Kin.Dom.1-N-terminal); for remaining activity at 1 µM: read-out: RSK2(Kin.Dom.1-N-terminal) (% of control at 1 µM).

For assay [4], the target named is T4, panel of 442 kinases (Homo sapiens, UniProt Q13627).
T4 construct: purchased Ambit Biosciences (scanMAXX KINOMEscan)
The conditions noted are these: DYRK1A; for remaining activity at 1 µM: read-out: % of control at 1 µM.

Assay [5] has as its target T5, panel of 442 kinases (Homo sapiens, UniProt Q16288).
T5 construct: purchased Ambit Biosciences (scanMAXX KINOMEscan)
The settings on record: kinase TRKC; for remaining activity at 1 µM: read-out: TRKC (% of control at 1 µM).

In assay [6] the target is T6, panel of 442 kinases (Homo sapiens, UniProt Q86Y07).
T6 construct: purchased Ambit Biosciences (scanMAXX KINOMEscan)
The conditions noted are these: kinase VRK2; for remaining activity at 1 µM: read-out: VRK2 (% of control at 1 µM).

Assay [7] has as its target T7, panel of 442 kinases (Homo sapiens, UniProt Q86Z02).
T7 construct: purchased Ambit Biosciences (scanMAXX KINOMEscan)
The settings on record: kinase HIPK1; for remaining activity at 1 µM: read-out: % of control at 1 µM.

Assay [8] has as its target T8, panel of 442 kinases (Homo sapiens, UniProt Q9H4B4).
T8 construct: purchased Ambit Biosciences (scanMAXX KINOMEscan)
The conditions noted are these: kinase PLK3; for remaining activity at 1 µM: read-out: PLK3 (% of control at 1 µM).

Assay [9] has as its target T9, panel of 442 kinases (Homo sapiens, UniProt Q9NRH2).
T9 construct: purchased Ambit Biosciences (scanMAXX KINOMEscan)
T9 sequence (Q9NRH2 1-765): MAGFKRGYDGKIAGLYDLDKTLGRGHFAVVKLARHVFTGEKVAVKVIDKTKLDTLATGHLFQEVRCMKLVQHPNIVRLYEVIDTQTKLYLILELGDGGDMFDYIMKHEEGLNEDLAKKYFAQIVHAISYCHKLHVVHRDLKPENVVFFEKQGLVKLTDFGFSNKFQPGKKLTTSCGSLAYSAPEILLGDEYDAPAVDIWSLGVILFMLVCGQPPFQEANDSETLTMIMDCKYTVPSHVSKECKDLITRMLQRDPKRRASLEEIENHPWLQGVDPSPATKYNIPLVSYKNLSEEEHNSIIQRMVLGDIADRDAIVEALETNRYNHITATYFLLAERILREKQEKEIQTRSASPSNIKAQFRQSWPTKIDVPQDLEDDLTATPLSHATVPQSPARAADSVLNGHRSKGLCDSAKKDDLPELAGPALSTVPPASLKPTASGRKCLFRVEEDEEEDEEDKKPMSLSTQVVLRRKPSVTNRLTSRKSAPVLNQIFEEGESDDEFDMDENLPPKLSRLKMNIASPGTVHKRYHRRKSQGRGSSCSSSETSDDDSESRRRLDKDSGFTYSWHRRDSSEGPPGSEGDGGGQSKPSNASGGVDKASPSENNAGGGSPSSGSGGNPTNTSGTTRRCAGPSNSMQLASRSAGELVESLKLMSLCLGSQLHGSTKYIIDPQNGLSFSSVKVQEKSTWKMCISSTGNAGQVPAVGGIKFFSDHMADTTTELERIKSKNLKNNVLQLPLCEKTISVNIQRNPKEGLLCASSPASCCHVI
The conditions noted are these: kinase SNRK; for remaining activity at 1 µM: read-out: SNRK (% of control at 1 µM).

The target in assay [10] is T10, panel of 442 kinases (Homo sapiens, UniProt Q9UKI8).
T10 construct: purchased Ambit Biosciences (scanMAXX KINOMEscan)
T10 sequence (Q9UKI8 1-766): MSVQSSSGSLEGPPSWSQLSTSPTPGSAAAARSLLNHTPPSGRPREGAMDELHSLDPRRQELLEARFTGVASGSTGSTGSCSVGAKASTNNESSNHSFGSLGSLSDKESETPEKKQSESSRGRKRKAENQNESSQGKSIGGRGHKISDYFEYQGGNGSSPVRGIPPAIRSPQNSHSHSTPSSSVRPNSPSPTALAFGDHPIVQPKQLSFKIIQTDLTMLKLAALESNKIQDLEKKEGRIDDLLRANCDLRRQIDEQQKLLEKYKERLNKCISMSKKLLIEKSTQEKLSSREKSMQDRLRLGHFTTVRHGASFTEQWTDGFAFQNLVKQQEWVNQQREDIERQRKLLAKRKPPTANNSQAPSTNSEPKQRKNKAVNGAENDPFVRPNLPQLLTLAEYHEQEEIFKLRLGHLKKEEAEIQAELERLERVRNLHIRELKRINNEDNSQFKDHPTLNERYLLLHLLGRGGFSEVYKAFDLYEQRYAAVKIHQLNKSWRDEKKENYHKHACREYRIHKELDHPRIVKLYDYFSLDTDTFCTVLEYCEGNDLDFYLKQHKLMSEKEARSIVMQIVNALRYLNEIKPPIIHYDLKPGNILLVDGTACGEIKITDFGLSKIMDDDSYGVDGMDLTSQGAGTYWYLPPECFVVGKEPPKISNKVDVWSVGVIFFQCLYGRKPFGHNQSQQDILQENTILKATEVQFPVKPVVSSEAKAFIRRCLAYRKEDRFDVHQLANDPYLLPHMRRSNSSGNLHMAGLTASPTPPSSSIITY
The conditions noted are these: kinase TLK1; for remaining activity at 1 µM: read-out: TLK1 (% of control at 1 µM).

The target of assay [11] is T11, panel of 442 kinases (Homo sapiens, UniProt Q9UQM7).
T11 construct: purchased Ambit Biosciences (scanMAXX KINOMEscan)
The settings on record: CAMK2A; for remaining activity at 1 µM: read-out: % of control at 1 µM.

The mark [12] stands for this setting: kinase RPS6KA4(Kin.Dom.1-N-terminal), read-out: RPS6KA4(Kin.Dom.1-N-terminal) (% of control at 1 µM).
Setting [13] is: kinase RPS6KA4(Kin.Dom.2-C-terminal), read-out: RPS6KA4(Kin.Dom.2-C-terminal) (% of control at 1 µM).
The mark [14] stands for this setting: 10 µM, read-out: % of control at 10 µM.

T3 sequence (P51812 whole entry): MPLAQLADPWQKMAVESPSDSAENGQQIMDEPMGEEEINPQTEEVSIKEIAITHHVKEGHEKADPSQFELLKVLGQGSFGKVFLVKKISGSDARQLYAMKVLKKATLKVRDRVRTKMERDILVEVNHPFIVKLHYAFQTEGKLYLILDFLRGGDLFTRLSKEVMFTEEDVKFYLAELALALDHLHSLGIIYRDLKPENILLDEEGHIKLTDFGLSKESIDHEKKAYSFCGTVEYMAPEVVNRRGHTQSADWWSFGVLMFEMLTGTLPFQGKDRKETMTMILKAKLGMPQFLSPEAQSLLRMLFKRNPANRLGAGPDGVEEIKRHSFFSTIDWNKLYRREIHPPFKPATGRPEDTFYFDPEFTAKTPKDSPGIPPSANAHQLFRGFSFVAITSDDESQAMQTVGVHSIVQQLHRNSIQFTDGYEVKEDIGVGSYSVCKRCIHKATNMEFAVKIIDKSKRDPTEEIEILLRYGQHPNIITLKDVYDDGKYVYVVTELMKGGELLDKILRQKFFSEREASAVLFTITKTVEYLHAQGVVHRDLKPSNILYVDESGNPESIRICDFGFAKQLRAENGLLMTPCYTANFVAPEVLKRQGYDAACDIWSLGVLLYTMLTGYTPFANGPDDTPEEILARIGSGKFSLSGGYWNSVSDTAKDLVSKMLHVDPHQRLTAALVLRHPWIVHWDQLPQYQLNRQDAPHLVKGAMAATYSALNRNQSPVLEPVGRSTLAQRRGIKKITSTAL
T2 sequence (O75676 whole entry): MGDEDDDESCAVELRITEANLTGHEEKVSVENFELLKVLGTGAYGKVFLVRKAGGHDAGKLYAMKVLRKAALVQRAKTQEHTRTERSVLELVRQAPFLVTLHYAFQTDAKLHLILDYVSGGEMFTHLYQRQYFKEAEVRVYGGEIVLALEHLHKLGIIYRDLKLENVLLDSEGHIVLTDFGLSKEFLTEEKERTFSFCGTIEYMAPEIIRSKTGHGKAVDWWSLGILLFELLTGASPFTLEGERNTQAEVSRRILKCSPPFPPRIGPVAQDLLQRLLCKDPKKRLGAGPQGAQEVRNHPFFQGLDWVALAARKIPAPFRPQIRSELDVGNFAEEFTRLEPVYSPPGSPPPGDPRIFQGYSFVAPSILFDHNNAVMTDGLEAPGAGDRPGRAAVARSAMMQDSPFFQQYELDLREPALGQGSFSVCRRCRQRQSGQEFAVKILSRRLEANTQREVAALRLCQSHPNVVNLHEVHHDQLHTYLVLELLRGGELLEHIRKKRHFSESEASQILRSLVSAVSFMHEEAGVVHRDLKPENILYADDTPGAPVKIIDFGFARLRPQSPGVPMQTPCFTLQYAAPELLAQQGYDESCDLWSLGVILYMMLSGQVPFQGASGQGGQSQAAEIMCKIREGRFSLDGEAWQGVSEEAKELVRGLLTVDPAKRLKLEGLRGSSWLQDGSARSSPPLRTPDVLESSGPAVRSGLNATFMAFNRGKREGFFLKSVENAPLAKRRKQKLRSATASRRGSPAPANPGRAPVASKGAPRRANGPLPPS
T1 sequence (O75116 whole entry): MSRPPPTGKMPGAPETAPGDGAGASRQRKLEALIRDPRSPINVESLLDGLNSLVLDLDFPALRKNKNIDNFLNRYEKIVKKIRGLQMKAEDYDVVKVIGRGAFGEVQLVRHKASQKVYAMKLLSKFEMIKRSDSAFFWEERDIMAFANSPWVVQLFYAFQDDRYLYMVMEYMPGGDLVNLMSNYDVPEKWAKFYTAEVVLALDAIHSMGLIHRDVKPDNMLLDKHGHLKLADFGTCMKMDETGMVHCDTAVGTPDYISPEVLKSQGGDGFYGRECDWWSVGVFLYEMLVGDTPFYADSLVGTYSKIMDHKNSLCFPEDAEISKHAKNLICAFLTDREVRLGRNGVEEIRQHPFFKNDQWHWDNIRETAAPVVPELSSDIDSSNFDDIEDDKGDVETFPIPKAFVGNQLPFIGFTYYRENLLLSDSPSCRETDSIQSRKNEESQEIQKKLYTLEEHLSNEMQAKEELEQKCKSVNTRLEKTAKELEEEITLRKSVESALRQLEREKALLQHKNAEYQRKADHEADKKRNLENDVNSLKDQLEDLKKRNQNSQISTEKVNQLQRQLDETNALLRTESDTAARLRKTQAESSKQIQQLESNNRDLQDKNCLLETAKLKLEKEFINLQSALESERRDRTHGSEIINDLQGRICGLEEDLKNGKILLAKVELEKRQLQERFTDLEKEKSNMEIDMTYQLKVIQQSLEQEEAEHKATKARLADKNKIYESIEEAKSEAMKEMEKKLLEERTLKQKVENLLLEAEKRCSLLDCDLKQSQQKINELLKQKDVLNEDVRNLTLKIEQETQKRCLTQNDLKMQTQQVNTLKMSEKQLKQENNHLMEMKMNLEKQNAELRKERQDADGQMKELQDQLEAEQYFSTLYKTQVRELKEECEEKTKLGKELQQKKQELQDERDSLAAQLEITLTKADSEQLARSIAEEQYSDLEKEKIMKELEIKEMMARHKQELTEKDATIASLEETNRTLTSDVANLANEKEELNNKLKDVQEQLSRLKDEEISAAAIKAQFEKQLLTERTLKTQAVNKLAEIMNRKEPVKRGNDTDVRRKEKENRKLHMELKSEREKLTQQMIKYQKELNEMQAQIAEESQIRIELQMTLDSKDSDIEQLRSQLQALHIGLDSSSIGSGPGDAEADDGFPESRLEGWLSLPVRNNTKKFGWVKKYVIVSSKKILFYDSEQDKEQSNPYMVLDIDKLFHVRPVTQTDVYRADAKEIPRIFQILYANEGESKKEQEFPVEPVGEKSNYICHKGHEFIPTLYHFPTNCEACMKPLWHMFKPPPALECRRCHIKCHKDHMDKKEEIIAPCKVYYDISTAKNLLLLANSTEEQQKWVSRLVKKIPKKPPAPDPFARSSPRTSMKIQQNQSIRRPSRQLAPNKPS
T8 sequence (Q9H4B4 whole entry): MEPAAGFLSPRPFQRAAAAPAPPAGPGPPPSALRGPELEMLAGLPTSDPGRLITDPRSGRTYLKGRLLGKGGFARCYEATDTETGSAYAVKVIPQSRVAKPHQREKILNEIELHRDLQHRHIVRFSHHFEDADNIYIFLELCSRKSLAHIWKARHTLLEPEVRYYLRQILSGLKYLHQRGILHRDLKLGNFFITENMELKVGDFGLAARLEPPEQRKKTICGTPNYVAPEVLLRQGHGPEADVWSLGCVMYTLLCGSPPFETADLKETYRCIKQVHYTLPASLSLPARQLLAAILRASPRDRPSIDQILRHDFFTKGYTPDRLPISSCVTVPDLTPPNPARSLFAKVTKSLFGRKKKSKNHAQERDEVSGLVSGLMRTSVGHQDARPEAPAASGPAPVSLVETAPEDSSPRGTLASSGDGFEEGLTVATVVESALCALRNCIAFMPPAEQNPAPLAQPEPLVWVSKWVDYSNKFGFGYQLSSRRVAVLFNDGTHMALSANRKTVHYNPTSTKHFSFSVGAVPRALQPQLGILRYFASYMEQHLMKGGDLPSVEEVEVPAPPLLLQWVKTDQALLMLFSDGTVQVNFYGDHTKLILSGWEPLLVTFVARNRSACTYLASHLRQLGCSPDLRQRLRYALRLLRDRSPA
T11 sequence (Q9UQM7 whole entry): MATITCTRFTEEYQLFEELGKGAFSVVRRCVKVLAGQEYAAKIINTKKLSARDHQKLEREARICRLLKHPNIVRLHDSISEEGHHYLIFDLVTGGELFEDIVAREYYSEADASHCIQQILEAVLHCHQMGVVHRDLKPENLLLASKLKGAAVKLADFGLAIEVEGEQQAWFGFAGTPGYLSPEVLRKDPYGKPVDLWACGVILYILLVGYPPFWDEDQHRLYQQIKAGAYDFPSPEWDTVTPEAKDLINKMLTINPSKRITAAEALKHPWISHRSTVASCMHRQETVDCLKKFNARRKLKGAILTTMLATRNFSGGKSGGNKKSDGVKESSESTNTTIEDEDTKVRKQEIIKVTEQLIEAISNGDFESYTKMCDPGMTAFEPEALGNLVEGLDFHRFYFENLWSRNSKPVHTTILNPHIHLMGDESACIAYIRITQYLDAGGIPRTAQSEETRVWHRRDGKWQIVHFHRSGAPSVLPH
T5 sequence (Q16288 32-839): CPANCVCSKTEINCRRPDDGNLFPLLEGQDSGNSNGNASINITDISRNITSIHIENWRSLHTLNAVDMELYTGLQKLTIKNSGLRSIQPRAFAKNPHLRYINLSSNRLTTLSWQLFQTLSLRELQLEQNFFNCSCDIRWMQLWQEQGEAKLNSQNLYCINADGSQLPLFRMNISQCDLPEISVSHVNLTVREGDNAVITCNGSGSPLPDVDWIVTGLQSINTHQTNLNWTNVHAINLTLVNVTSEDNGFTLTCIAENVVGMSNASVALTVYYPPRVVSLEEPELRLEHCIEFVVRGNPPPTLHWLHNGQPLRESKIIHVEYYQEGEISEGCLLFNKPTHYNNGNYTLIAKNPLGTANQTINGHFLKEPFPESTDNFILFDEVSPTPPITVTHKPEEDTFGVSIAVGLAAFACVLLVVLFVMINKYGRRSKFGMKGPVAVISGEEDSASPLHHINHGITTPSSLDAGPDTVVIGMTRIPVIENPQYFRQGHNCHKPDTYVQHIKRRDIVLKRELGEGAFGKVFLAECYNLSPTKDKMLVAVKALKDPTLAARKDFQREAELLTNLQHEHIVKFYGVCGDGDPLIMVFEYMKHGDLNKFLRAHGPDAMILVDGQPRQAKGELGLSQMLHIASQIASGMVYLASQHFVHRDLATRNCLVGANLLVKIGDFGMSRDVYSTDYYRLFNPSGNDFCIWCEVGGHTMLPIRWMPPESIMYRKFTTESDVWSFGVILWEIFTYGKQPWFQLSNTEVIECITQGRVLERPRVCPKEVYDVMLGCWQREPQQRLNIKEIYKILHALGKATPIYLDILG

With `Nc1cc(C(F)(F)F)c(-c2cc(N3CCOCC3)nc(N3CCOCC3)n2)cn1` [Buparlisib], the remaining activity at 1 µM on panel of 442 kinases [1] is 100%; at panel of 442 kinases [2] (setting [12]), 83%; at panel of 442 kinases [2] (setting [13]), 94%; on panel of 442 kinases [3] it was 99%; at panel of 442 kinases [4], 80%; at panel of 442 kinases [5] it was 76%. The remaining activity at 1 µM at panel of 442 kinases [6] worked out at 83%; at panel of 442 kinases [7], 100%; on panel of 442 kinases [8] it was 97%; at panel of 442 kinases [9] it was 90%; on panel of 442 kinases [10], 100%; at panel of 442 kinases [11], 100%. Further, the remaining activity at 10 µM amounted to 89% on panel of 442 kinases [1] (10 µM, read-out: ROCK2 (% of control at 10 µM)); 100% at panel of 442 kinases [2] (kinase RPS6KA4(Kin.Dom.1-N-terminal), read-out: RPS6KA4(Kin.Dom.1-N-terminal) (% of control at 10 µM)); 100% at panel of 442 kinases [2] (kinase RPS6KA4(Kin.Dom.2-C-terminal), read-out: RPS6KA4(Kin.Dom.2-C-terminal) (% of control at 10 µM)); 87% at panel of 442 kinases [3] (10 µM, read-out: RSK2(Kin.Dom.1-N-terminal) (% of control at 10 µM)); 51% at panel of 442 kinases [4] (setting [14]); 76% on panel of 442 kinases [5] (10 µM, read-out: TRKC (% of control at 10 µM)). The remaining activity at 10 µM stood at 100% at panel of 442 kinases [6] (10 µM, read-out: VRK2 (% of control at 10 µM)); 89% on panel of 442 kinases [7] (setting [14]); 100% on panel of 442 kinases [8] (10 µM, read-out: PLK3 (% of control at 10 µM)); 100% at panel of 442 kinases [9] (10 µM, read-out: SNRK (% of control at 10 µM)); 82% at panel of 442 kinases [10] (10 µM, read-out: TLK1 (% of control at 10 µM)); 100% on panel of 442 kinases [11] (setting [14]).
As to `Cn1c(=O)n(-c2ccc(C(C)(C)C#N)cc2)c2c3cc(-c4cnc5ccccc5c4)ccc3ncc21` [Dactolisib, 2-methyl-2-[4-(3-methyl-2-oxo-8-quinolin-3-yl-2,3-dihydroimidazo[4,5-c]quinolin-1-yl)-phenyl] propionitrile], the remaining activity at 1 µM at panel of 442 kinases [1] amounted to 60%; on panel of 442 kinases [2] (setting [12]), 100%; at panel of 442 kinases [2] (setting [13]), 100%; at panel of 442 kinases [4] it was 100%; at panel of 442 kinases [5], 85%; at panel of 442 kinases [6], 83%. Also, the remaining activity at 1 µM stood at 72% at panel of 442 kinases [7]; 88% on panel of 442 kinases [8]; 71% on panel of 442 kinases [9]; 75% on panel of 442 kinases [10]; 90% on panel of 442 kinases [11].
Consider `FC(F)c1nc2ccccc2n1-c1nc(N2CCOCC2)nc(N2CCOCC2)n1` [ZSTK474, 2-(difluoromethyl)-1-[4,6-di(4-morpholinyl)-1,3,5-triazin-2-yl]-1H-benzimidazole], for which the remaining activity at 1 µM on panel of 442 kinases [1] came to 86%; at panel of 442 kinases [2] (setting [12]), 100%; on panel of 442 kinases [2] (setting [13]), 100%; on panel of 442 kinases [3], 88%; on panel of 442 kinases [4] it was 100%; on panel of 442 kinases [5], 100%. Besides, the remaining activity at 1 µM on panel of 442 kinases [6] came to 100%; on panel of 442 kinases [7], 86%; at panel of 442 kinases [8], 83%; at panel of 442 kinases [9] it was 100%; at panel of 442 kinases [10] it was 100%; at panel of 442 kinases [11], 87%.
Turning to `COc1ncc(-c2ccc3nccc(-c4ccnnc4)c3c2)cc1NS(=O)(=O)c1ccc(F)cc1F` [Omipalisib], the remaining activity at 1 µM worked out at 89% on panel of 442 kinases [1]; 100% at panel of 442 kinases [2] (setting [12]); 97% at panel of 442 kinases [2] (setting [13]); 62% on panel of 442 kinases [3]; 100% on panel of 442 kinases [4]; 100% at panel of 442 kinases [5]. For the same molecule, the remaining activity at 1 µM was 100% on panel of 442 kinases [6]; 99% at panel of 442 kinases [7]; 82% at panel of 442 kinases [8]; 88% at panel of 442 kinases [9]; 95% on panel of 442 kinases [10]; 100% at panel of 442 kinases [11].
